Results from US8653110B2, “Active compound combination comprising azadirachtin and a substituted enaminocarbonyl compound” (Bayer CropScience AG, priority 2010, dated 2014).

Tests used:
Assay type in all cases: in vivo
[1] = test system: Trialeurodes vaporariorum; test: Whiteflies on tomatoes (Example 5)
Method: Example 5 describes the effect of the combination according to the invention against whiteflies (Trialeurodes vaporariorum) on tomatoes (Lycopersicon esculentum). The test was carried out under GEP according to EPPO guideline PP 1/36(2) with 3 repetitions of in each case 4 plants. At the start of the infection, the plants were treated as follows: • 1. untreated • 2. compound (I-1) as SL 200 (compound according to formula (I-1), 17% strength), 50 g of active compound/ha • 3. azadirachtin 30 g of active compound/ha, NeemAzal® • 4. azadirachtin 15 g of active compound/ha, NeemAzal® • 5. azadirachtin 5 g of active compound/ha, NeemAzal® • 6. compound (I-1) as SL 200+azadirachtin, 50+30 g of active compound/ha • 7. compound (I-1) as SL 200+azadirachtin, 50+15 g of active compound/ha • 8. compound (I-1) as SL 200+azadirachtin, 50+5 g of active compound/ha • 9. positive control imidacloprid 100 g of active compound/ha
The spray solution was prepared by mixing commercial formulations and using water to adjust to the concentration mentioned. The application rate was 1000 l/ha. 2 applications were carried out at intervals of 14 days. The number of adult flies and the number of larvae were scored on days 2 to 21 after the first application. What is shown is the effect of the products, which becomes evident in a reduction of the number of insects or larvae compared to the untreated control. Imidacloprid was also tested, as positive control.

Phyllotreta nigripes = test: Turnip flea beetle on cabbage (Example 10); conditions: (I-1) 150, azadirachtin 30, (I-1)+azadirachtin 150+30, imidacloprid 100 g/ha
Method: Example 10 describes the effect of the combination according to the invention on caterpillars of the turnip flea beetle Phyllotreta nigripes on cabbage. The test was carried out according to EPPO guidelines PP 1/210(1), PP 1/152 (2), PP 1/181 (3) and PP 1/135 with 4 repetitions of in each case 10 plants. The plants were treated as follows: • 1. untreated • 2. compound (I-1) as SL 200 (compound according to formula (I-1), 17% strength), 150 g of active compound/ha • 3. azadirachtin 30 g of active compound/ha, NeemAzal® • 4. compound (I-1) as SL 200+azadirachtin, 150+30 g of active compound/ha • 5. positive control imidacloprid 100 g of active compound/ha
The spray solution was prepared by mixing commercial formulations and using water to adjust to the concentration mentioned. The application rate was 1000 l/ha. 2 applications were carried out at intervals of 14 days. The number of live caterpillars on days 7 to 32 after the first application was scored. What is shown is the effect of the products, which becomes evident in a reduction of the number of caterpillars compared to the untreated control.

Plutella xylostella = test: Diamondback moth bioassay on Savoy cabbage leaf discs (Example 9)
Method: Example 9 also describes the effect of the combination according to the invention on caterpillars of diamondback moth Plutella xylostella on Savoy cabbage. The plants were grown in a greenhouse, and five plants each were treated as follows: The spray solution was prepared by mixing commercial formulations and using water to adjust to the concentration mentioned. The application rate was 1000 l/ha. • 1. untreated • 2. compound (I-1) as SL 200 (compound according to formula (I-1), 17% strength), 50 g of active compound/ha • 3. azadirachtin 30 g of active compound/ha, NeemAzal® • 4. azadirachtin 15 g of active compound/ha, NeemAzal® • 5. azadirachtin 5 g of active compound/ha, NeemAzal® • 6. compound (I-1) as SL 200+azadirachtin, 50+30 g of active compound/ha • 7. compound (I-1) as SL 200+azadirachtin, 50+15 g of active compound/ha • 8. compound (I-1) as SL 200+azadirachtin, 50+5 g of active compound/ha • 9. positive control imidacloprid 100 g of active compound/ha
The plants were incubated under greenhouse conditions (20° C., 70% relative atmospheric humidity), the plants being placed at random. After 3 days, the first leaf samples were taken. Here, 5 leaves were picked from each plant. 10 leaf discs of a diameter of 6 cm were punched from the leaves and placed in Petri dishes covered with moistened filter paper. Once the leaf discs had been placed into the Petri dishes, 5 Plutella xylostella larvae of the L2 instar were added. The Petri dishes were placed on a tablett, covered with a dark film and kept at 20° C. in the laboratory. Evaluation was carried out on days 9, 14 and 21 after the addition of the larvae, the number of surviving animals being scored.
What is shown is the effect of the products, which becomes evident in a reduction of the number of diamondback moths compared to the untreated control.

Spodoptera exigua = Spodoptera exigua caterpillars on carnations, feeding damage (Example 1); conditions: for Day 7 reduction of feeding damage in %: Day 7, (I-1) 150, azadirachtin 30, (I-1)+azadirachtin 150+30, imidacloprid 100 g of active compound/ha; for Day 32 reduction of feeding damage in %: Day 32, (I-1) 150, azadirachtin 30, (I-1)+azadirachtin 150+30, imidacloprid 100 g of active compound/ha; for Day 40 reduction of feeding damage in %: Day 40, (I-1) 150, azadirachtin 30, (I-1)+azadirachtin 150+30, imidacloprid 100 g of active compound/ha
Method: Example 1 describes the effect of the combination according to the invention on caterpillars of the owlet moth (Spodoptera exigua) on carnations (Dianthus caryophyllus). Azadirachtin was employed as NeemAzal® from Trifolio GmbH. The test was carried out according to EPPO guidelines PP 1/152 (2), PP 1/181 (3), PP 1/135 (3) and PP 1/210 (1) with 4 repetitions of in each case 10 plants. At the start of the infection, the plants were treated as follows: • 1. untreated • 2. compound (I-1) as SL 200 (17% strength), 150 g of active compound/ha • 3. azadirachtin 30 g of active compound/ha • 4. compound (I-1) as SL 200+azadirachtin, 150+30 g of active compound/ha • 5. positive control: imidacloprid 100 g of active compound/ha
The spray solution was prepared by mixing commercial formulations and using water to adjust to the concentration mentioned. The application rate was 1000 l/ha. 3 Applications were carried out at intervals of 10-14 days. The feeding damage caused by the caterpillars on the carnation leaves was scored at weekly intervals.

[2] = Day 2, (I-1) 50, azadirachtin 30, (I-1)+azadirachtin 50+30, imidacloprid 100 g/ha
[3] = Day 7, (I-1) 50, azadirachtin 30, (I-1)+azadirachtin 50+30, imidacloprid 100 g/ha
[4] = Day 14, (I-1) 50, azadirachtin 30, (I-1)+azadirachtin 50+30, imidacloprid 100 g/ha
[5] = Day 21, (I-1) 50, azadirachtin 30, (I-1)+azadirachtin 50+30, imidacloprid 100 g/ha
[6] = Day 9, (I-1) 50, azadirachtin 30, (I-1)+azadirachtin 50+30, imidacloprid 100 g/ha
[7] = Day 2, azadirachtin 5, (I-1)+azadirachtin 50+5 g/ha
[8] = Day 2, azadirachtin 15, (I-1)+azadirachtin 50+15 g/ha
[9] = Day 7, azadirachtin 5, (I-1)+azadirachtin 50+5 g/ha
[10] = Day 7, azadirachtin 15, (I-1)+azadirachtin 50+15 g/ha
[11] = Day 14, azadirachtin 5, (I-1)+azadirachtin 50+5 g/ha
[12] = Day 14, azadirachtin 15, (I-1)+azadirachtin 50+15 g/ha
[13] = Day 21, azadirachtin 5, (I-1)+azadirachtin 50+5 g/ha
[14] = Day 21, azadirachtin 15, (I-1)+azadirachtin 50+15 g/ha

## O=C1C=C(N(Cc2ccc(Cl)nc2)CC(F)F)CO1 [(I-1), 4-{[(6-chloropyrid-3-yl)methyl](2,2-difluoroethyl)amino}furan-2(5H)-one]
[1]; [2]
  Activity against adults [%]: 73%
  Activity against larvae [%]: 0%
[1]; [3]
  Activity against adults [%]: 75%
  Activity against larvae [%]: 18%
[1]; [4]
  Activity against adults [%]: 22%
  Activity against larvae [%]: 0%
[1]; [5]
  Activity against adults [%]: 57%
  Activity against larvae [%]: 14%
Phyllotreta nigripes; Day 7
  Activity against Phyllotreta nigripes [%]: 0%
Phyllotreta nigripes; Days 14-16
  Activity against Phyllotreta nigripes [%]: 9.5%
Phyllotreta nigripes; Days 21-25
  Activity against Phyllotreta nigripes [%]: 7.4%
Phyllotreta nigripes; Days 28-32
  Activity against Phyllotreta nigripes [%]: 2.8%
Plutella xylostella; [6]
  Activity against Plutella xylostella [%]: 0%
Plutella xylostella; [4]
  Activity against Plutella xylostella [%]: 21%
Plutella xylostella; [5]
  Activity against Plutella xylostella [%]: 34%
Spodoptera exigua
  Day 7 reduction of feeding damage in %: 0%
  Day 32 reduction of feeding damage in %: 49%
  Day 40 reduction of feeding damage in %: 88%

## C/C=C(\C)C(=O)O[C@H]1C[C@@H](OC(C)=O)[C@@]2(C(=O)OC)CO[C@H]3[C@@H](O)[C@@](C)([C@]45O[C@@]4(C)[C@H]4C[C@@H]5O[C@@H]5OC=C[C@@]54O)[C@H]4[C@]1(CO[C@]4(O)C(=O)OC)[C@@H]32 [azadirachtin]
[1]; [2]
  Activity against adults [%]: 45%
  Activity against larvae [%]: 0%
[1]; [7]
  Activity against adults [%]: 23%
  Activity against larvae [%]: 0%
[1]; [8]
  Activity against adults [%]: 47%
  Activity against larvae [%]: 0%
[1]; [3]
  Activity against adults [%]: 47%
  Activity against larvae [%]: 2%
[1]; [9]
  Activity against adults [%]: 7%
  Activity against larvae [%]: 24%
[1]; [10]
  Activity against adults [%]: 54%
  Activity against larvae [%]: 13%
[1]; [4]
  Activity against adults [%]: 32%
  Activity against larvae [%]: 13%
[1]; [11]
  Activity against adults [%]: 0%
  Activity against larvae [%]: 12%
[1]; [12]
  Activity against adults [%]: 49%
  Activity against larvae [%]: 37%
[1]; [5]
  Activity against adults [%]: 56%
  Activity against larvae [%]: 0%
[1]; [13]
  Activity against adults [%]: 16%
  Activity against larvae [%]: 0%
[1]; [14]
  Activity against adults [%]: 80%
  Activity against larvae [%]: 0%
Phyllotreta nigripes; Day 7
  Activity against Phyllotreta nigripes [%]: 29%
Phyllotreta nigripes; Days 14-16
  Activity against Phyllotreta nigripes [%]: 51%
Phyllotreta nigripes; Days 21-25
  Activity against Phyllotreta nigripes [%]: 35%
Phyllotreta nigripes; Days 28-32
  Activity against Phyllotreta nigripes [%]: 34%
Plutella xylostella; [6]
  Activity against Plutella xylostella [%]: 46%
Plutella xylostella; Day 9, azadirachtin 5, (I-1)+azadirachtin 50+5 g/ha
  Activity against Plutella xylostella [%]: 0%
Plutella xylostella; Day 9, azadirachtin 15, (I-1)+azadirachtin 50+15 g/ha
  Activity against Plutella xylostella [%]: 18%
Plutella xylostella; [4]
  Activity against Plutella xylostella [%]: 72%
Plutella xylostella; [11]
  Activity against Plutella xylostella [%]: 15%
Plutella xylostella; [12]
  Activity against Plutella xylostella [%]: 31%
Plutella xylostella; [5]
  Activity against Plutella xylostella [%]: 25%
Plutella xylostella; [13]
  Activity against Plutella xylostella [%]: 25%
Plutella xylostella; [14]
  Activity against Plutella xylostella [%]: 38%
Spodoptera exigua
  Day 7 reduction of feeding damage in %: 0%
  Day 32 reduction of feeding damage in %: 92%
  Day 40 reduction of feeding damage in %: 100%

## O=[N+]([O-])NC1=NCCN1Cc1ccc(Cl)nc1 [imidacloprid]
[1]; [2]
  Activity against adults [%]: 51%
  Activity against larvae [%]: 0%
[1]; [3]
  Activity against adults [%]: 89%
  Activity against larvae [%]: 60%
[1]; [4]
  Activity against adults [%]: 68%
  Activity against larvae [%]: 50%
[1]; [5]
  Activity against adults [%]: 65%
  Activity against larvae [%]: 52%
Phyllotreta nigripes; Day 7
  Activity against Phyllotreta nigripes [%]: 52%
Phyllotreta nigripes; Days 14-16
  Activity against Phyllotreta nigripes [%]: 51%
Phyllotreta nigripes; Days 21-25
  Activity against Phyllotreta nigripes [%]: 49%
Phyllotreta nigripes; Days 28-32
  Activity against Phyllotreta nigripes [%]: 43%
Plutella xylostella; [6]
  Activity against Plutella xylostella [%]: 43%
Plutella xylostella; [4]
  Activity against Plutella xylostella [%]: 36%
Plutella xylostella; [5]
  Activity against Plutella xylostella [%]: 41%
Spodoptera exigua
  Day 7 reduction of feeding damage in %: 0%
  Day 32 reduction of feeding damage in %: 97%
  Day 40 reduction of feeding damage in %: 100%
Spodoptera exigua; Day 25, (I-1) 150, azadirachtin 30, (I-1)+azadirachtin 150+30, imidacloprid 100 g of active compound/ha
  Day 25 reduction of feeding damage in %: 100%
